Experimental data from PubChem BioAssay AID248 (DTP/NCI, 2004).
Inconclusive results and toxic doses are left out. No stated cut-off is given here; in the data, active means T/C of 150% or more; inactive means T/C below 125%.

Tested on: L1210 leukemia ip in BDF1 mice, survival T/C
Test: NCI In Vivo Anticancer Drug Screen. Data for tumor model L1210 Leukemia (intraperitoneal) in B6D2F1 (BDF1) mice
Settings: endpoint: mean survival time, higher = longer survival
How it was run: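 Antitumor effect is assessed in tumor-bearing animals. Survival in the compound arm is compared with a vehicle-dosed control arm and expressed as their quotient.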

[1] = dose: 50.0 mg/kg/injection, schedule: Q01DX009 (ip), vehicle: other
[2] = dose: 100.0 mg/kg/injection, schedule: Q01DX009 (ip), vehicle: other
[3] = dose: 100.0 mg/kg/injection, schedule: Q01DX001 (ip), vehicle: Klucel (hydroxypropylcellulose) (HPC)
[4] = dose: 200.0 mg/kg/injection, schedule: Q01DX001 (ip), vehicle: Klucel (hydroxypropylcellulose) (HPC)
[5] = dose: 400.0 mg/kg/injection, schedule: Q01DX001 (ip), vehicle: Klucel (hydroxypropylcellulose) (HPC)
[6] = dose: 50.0 mg/kg/injection, schedule: Q01DX009 (ip), vehicle: saline
[7] = dose: 100.0 mg/kg/injection, schedule: Q01DX009 (ip), vehicle: saline
[8] = dose: 100.0 mg/kg/injection, schedule: Q04DX003 (ip), vehicle: Klucel (hydroxypropylcellulose) (HPC)
[9] = dose: 100.0 mg/kg/injection, schedule: Q04DX003 (ip), vehicle: saline
[10] = dose: 200.0 mg/kg/injection, schedule: Q01DX009 (ip), vehicle: saline
[11] = dose: 200.0 mg/kg/injection, schedule: Q04DX003 (ip), vehicle: Klucel (hydroxypropylcellulose) (HPC)
[12] = dose: 200.0 mg/kg/injection, schedule: Q04DX003 (ip), vehicle: saline
[13] = dose: 400.0 mg/kg/injection, schedule: Q04DX003 (ip), vehicle: Klucel (hydroxypropylcellulose) (HPC)
[14] = dose: 400.0 mg/kg/injection, schedule: Q04DX003 (ip), vehicle: saline
[15] = dose: 100.0 mg/kg/injection, schedule: Q04DX003 (ip), vehicle: other
[16] = dose: 100.0 mg/kg/injection, schedule: Q01DX009 (ip), vehicle: saline with Tween-80
[17] = dose: 200.0 mg/kg/injection, schedule: Q01DX009 (ip), vehicle: saline with Tween-80
[18] = dose: 400.0 mg/kg/injection, schedule: Q01DX009 (ip), vehicle: saline with Tween-80
[19] = dose: 100.0 mg/kg/injection, schedule: Q01DX001 (ip), vehicle: saline
[20] = dose: 200.0 mg/kg/injection, schedule: Q01DX001 (ip), vehicle: saline
[21] = dose: 400.0 mg/kg/injection, schedule: Q01DX001 (ip), vehicle: saline
[22] = dose: 100.0 mg/kg/injection, schedule: Q04DX003 (ip), vehicle: saline with Tween-80
[23] = dose: 200.0 mg/kg/injection, schedule: Q04DX003 (ip), vehicle: saline with Tween-80
[24] = dose: 400.0 mg/kg/injection, schedule: Q04DX003 (ip), vehicle: saline with Tween-80
[25] = dose: 100.0 mg/kg/injection, schedule: Q01DX009 (ip), vehicle: Klucel (hydroxypropylcellulose) (HPC)
[26] = dose: 200.0 mg/kg/injection, schedule: Q01DX009 (ip), vehicle: Klucel (hydroxypropylcellulose) (HPC)

Measured: T/C

CCCCN(C)N=Nc1ccccc1C(=O)O
inactive: dose: 6.25 mg/kg/injection, schedule: Q01DX009 (ip), vehicle: other 100 % of control | dose: 12.5 mg/kg/injection, schedule: Q01DX009 (ip), vehicle: other 103 % of control | dose: 25.0 mg/kg/injection, schedule: Q01DX009 (ip), vehicle: other 108 % of control | [1] 110 % of control | [2] 123 % of control

CCOC(=O)NCc1cccc2ccc(Cl)cc12
inactive: [3] 95 % of control | [4] 90 % of control | [5] 86 % of control

CCC(CC)(CO)CO
inactive: dose: 25.0 mg/kg/injection, schedule: Q01DX009 (ip), vehicle: saline 96 % of control | dose: 25.0 mg/kg/injection, schedule: Q04DX003 (ip), vehicle: saline 96 % of control | [6] 96 % of control | dose: 50.0 mg/kg/injection, schedule: Q04DX003 (ip), vehicle: saline 102 % of control | [7] 92 % of control | [8] 103 % of control | [9] 91 % of control | [10] 96 % of control | [11] 94 % of control | [12] 91 % of control | dose: 400.0 mg/kg/injection, schedule: Q01DX009 (ip), vehicle: saline 96 % of control | [13] 97 % of control | [14] 107 % of control

C[N+](C)(C)c1ccc([N+](=O)[O-])cn1
inactive: [9] 101 % of control

Oc1ccc(Cl)cc1Sc1cc(Cl)ccc1O
inactive: dose: 25.0 mg/kg/injection, schedule: Q04DX003 (ip), vehicle: other 103 % of control | [1] 95 % of control | dose: 50.0 mg/kg/injection, schedule: Q04DX003 (ip), vehicle: other 97 % of control | [2] 111 % of control | [15] 92 % of control | [9] 86 % of control | dose: 200.0 mg/kg/injection, schedule: Q01DX009 (ip), vehicle: other 95 % of control

C=C(Cl)CN(CCCC(=O)O)c1cccc(OC)c1
inactive: [16] 89 % of control | [15] 100 % of control | [17] 95 % of control | dose: 200.0 mg/kg/injection, schedule: Q04DX003 (ip), vehicle: other 98 % of control | [18] 97 % of control | dose: 400.0 mg/kg/injection, schedule: Q04DX003 (ip), vehicle: other 100 % of control

C=CCOc1ccn(CC=C)c(=O)n1
inactive: [3] 96 % of control | [4] 98 % of control | [5] 105 % of control

CC(=O)NC(CSC(=S)N(C)C)C(=O)O (stereo unspecified)
inactive: [6] 97 % of control | [7] 93 % of control | [10] 101 % of control

CNc1ccccn1
inactive: dose: 75.0 mg/kg/injection, schedule: Q01DX001 (ip), vehicle: carboxymethylcellulose (CMC) 95 % of control | dose: 150.0 mg/kg/injection, schedule: Q01DX001 (ip), vehicle: carboxymethylcellulose (CMC) 97 % of control | dose: 300.0 mg/kg/injection, schedule: Q01DX001 (ip), vehicle: carboxymethylcellulose (CMC) 101 % of control

CC(=O)OC1CCC2(C)C(=CC=C3C2CCC2(C)C3CCC2C(C)CCCC(C)C)C1 (stereo unspecified)
inactive: [3] 97 % of control | [4] 87 % of control | [5] 87 % of control

CC1CC(=O)CC(C)(C)N1 (stereo unspecified)
inactive: [19] 105 % of control | [20] 98 % of control | [21] 94 % of control

O=c1cc(CNC23CC4CC(CC(C4)C2)C3)[nH]c(=O)[nH]1
inactive: [22] 96 % of control | [23] 96 % of control | [24] 89 % of control

O=C(/C=C/c1ccc(Br)cc1)c1ccc(Cl)cc1
inactive: [16] 96 % of control | [22] 96 % of control | [17] 96 % of control | [23] 91 % of control | [18] 94 % of control | [24] 92 % of control

Nc1nc(N)c(N=Nc2ccc([As](=O)(O)O)c(O)c2)c(=O)[nH]1
inactive: [19] 91 % of control | [20] 93 % of control | [21] 93 % of control

O=S(=O)(F)c1ccc(Cl)cc1CBr
inactive: dose: 100.0 mg/kg/injection, schedule: Q04DX002 (ip), vehicle: saline with Tween-80 107 % of control | dose: 200.0 mg/kg/injection, schedule: Q04DX002 (ip), vehicle: saline with Tween-80 101 % of control | dose: 400.0 mg/kg/injection, schedule: Q04DX002 (ip), vehicle: saline with Tween-80 92 % of control

O=C(N/N=C/c1ccc(Cl)cc1)Nc1ccccc1
inactive: [25] 90 % of control | [26] 96 % of control

CN(C)C(=S)SCCC(=O)O
inactive: dose: 100.0 mg/kg/injection, schedule: Q04DX002 (ip), vehicle: Klucel (hydroxypropylcellulose) (HPC) 94 % of control | dose: 100.0 mg/kg/injection, schedule: Q04DX002 (ip), vehicle: saline 103 % of control | dose: 200.0 mg/kg/injection, schedule: Q04DX002 (ip), vehicle: Klucel (hydroxypropylcellulose) (HPC) 88 % of control | dose: 200.0 mg/kg/injection, schedule: Q04DX002 (ip), vehicle: saline 100 % of control | dose: 400.0 mg/kg/injection, schedule: Q04DX002 (ip), vehicle: saline 100 % of control

ClCOCCCCOCCl
inactive: [6] 114 % of control | [7] 87 % of control

CCCC1=NNC(=O)C1
inactive: dose: 100.0 mg/kg/injection, schedule: Q01DX001 (ip), vehicle: carboxymethylcellulose (CMC) 100 % of control | dose: 200.0 mg/kg/injection, schedule: Q01DX001 (ip), vehicle: carboxymethylcellulose (CMC) 100 % of control | dose: 400.0 mg/kg/injection, schedule: Q01DX001 (ip), vehicle: carboxymethylcellulose (CMC) 96 % of control

O=S(=O)(OCC1CO1)c1ccc(Br)cc1 (stereo unspecified)
inactive: dose: 100.0 mg/kg/injection, schedule: Q01DX008 (ip), vehicle: Klucel (hydroxypropylcellulose) (HPC) 103 % of control | dose: 200.0 mg/kg/injection, schedule: Q01DX008 (ip), vehicle: Klucel (hydroxypropylcellulose) (HPC) 92 % of control | dose: 400.0 mg/kg/injection, schedule: Q01DX008 (ip), vehicle: Klucel (hydroxypropylcellulose) (HPC) 108 % of control

CC12C=CC3(CCC4C(C)(C)C(=O)C(O)=CC4(C)C3CC1=O)C2 (stereo unspecified)
inactive: [25] 103 % of control | [8] 95 % of control | [26] 94 % of control | [11] 98 % of control | dose: 400.0 mg/kg/injection, schedule: Q01DX009 (ip), vehicle: Klucel (hydroxypropylcellulose) (HPC) 94 % of control | [13] 98 % of control

COC(OC)C1=C(Cl)C(Cl)=C(Cl)/C1=N\Nc1ccccc1
inactive: [8] 109 % of control | [11] 98 % of control | [13] 100 % of control

CCOC(=O)/C=C(/CC(=O)OCC)Nc1ccc(C)cc1
inactive: [19] 89 % of control | [20] 99 % of control | [21] 97 % of control

O=C1CC2C3Nc4ccccc4C3CCN2C2=C1CC(OC(=O)c1ccccc1)CC2 (stereo unspecified)
inactive: dose: 12.5 mg/kg/injection, schedule: Q01DX009 (ip), vehicle: saline sonified 96 % of control | dose: 25.0 mg/kg/injection, schedule: Q01DX009 (ip), vehicle: saline sonified 98 % of control | dose: 50.0 mg/kg/injection, schedule: Q01DX009 (ip), vehicle: saline sonified 103 % of control | [8] 95 % of control

CC(=O)OC1C(OC(C)=O)C2C(C)(C)CCCC2(C)C2Cc3occc3C(C)C12 (stereo unspecified)
inactive: [9] 120 % of control | [12] 117 % of control | [14] 103 % of control

NC1=NC(c2ccccc2)N(c2ccccc2)C(N)=N1 (stereo unspecified)
inactive: dose: 50.0 mg/kg/injection, schedule: Q01DX001 (ip), vehicle: saline 99 % of control | [19] 104 % of control
